Measurements from patent US10421755B2, “Salts of aza-bicyclic di-aryl ethers and methods to make them or their precursors” (Novartis AG, priority 2011, dated 2019).

Tests used:
[1] = molecular target: T1, human neuronal nAChR α4β2 (Homo sapiens, UniProt P17787+P43681); test: similar functional assay using a human epithelial cell line stably expressing the human α4β2 subtype; assay type: cell-based
T1 construct: expressed in transfected cells
Experimental: To assess the activity of the compound of the invention on the human neuronal nAChR α4β2, a similar functional assay is carried out using a human epithelial cell line stably expressing the human α4β2 subtype (Michelmore et al., Naunyn-Schmiedeberg's Arch. Pharmacol. (2002) 366, 235).

[2] = Pharmacokinetics in rats after oral administration; assay type: in vivo, Wistar rats; details: male, Wistar, rat, in vivo, po, 10 mg/kg; for Tmax: Tmax (h)
Experimental: If a salt forming agent is used (e.g. fumarate), a corresponding higher amount of the salt will be used to achieve the intended dosing.
Both compounds were dissolved in Klucel™ (0.5% in water) and were orally administered by gavage (5 ml/kg) to conscious rats (n=8, cross-over design).
K3-EDTA blood (˜0.2 ml) was collected by puncture of a sublingual vein under light isoflurane anesthesia at the following time points: 0.25, 0.5, 1, 2, 3, 4, 6, 8, 24 h post dose. Immediately after sampling, blood samples were put on ice and were processed to plasma by centrifugation at 4° C. within 15 min after sampling (1000 g, 10 min, 4° C.) to obtain ˜100 μl plasma/sample. All plasma samples were stored at −80° C. until analysis. Since the PK study was performed in a cross-over design, a recovery period of approximately 2 weeks took place before the next treatment/blood sampling was performed.
The determination of compounds in plasma was done by LC-MS/MS using electrospray ionization.

T1 sequence (P43681 29-627 limits assumed): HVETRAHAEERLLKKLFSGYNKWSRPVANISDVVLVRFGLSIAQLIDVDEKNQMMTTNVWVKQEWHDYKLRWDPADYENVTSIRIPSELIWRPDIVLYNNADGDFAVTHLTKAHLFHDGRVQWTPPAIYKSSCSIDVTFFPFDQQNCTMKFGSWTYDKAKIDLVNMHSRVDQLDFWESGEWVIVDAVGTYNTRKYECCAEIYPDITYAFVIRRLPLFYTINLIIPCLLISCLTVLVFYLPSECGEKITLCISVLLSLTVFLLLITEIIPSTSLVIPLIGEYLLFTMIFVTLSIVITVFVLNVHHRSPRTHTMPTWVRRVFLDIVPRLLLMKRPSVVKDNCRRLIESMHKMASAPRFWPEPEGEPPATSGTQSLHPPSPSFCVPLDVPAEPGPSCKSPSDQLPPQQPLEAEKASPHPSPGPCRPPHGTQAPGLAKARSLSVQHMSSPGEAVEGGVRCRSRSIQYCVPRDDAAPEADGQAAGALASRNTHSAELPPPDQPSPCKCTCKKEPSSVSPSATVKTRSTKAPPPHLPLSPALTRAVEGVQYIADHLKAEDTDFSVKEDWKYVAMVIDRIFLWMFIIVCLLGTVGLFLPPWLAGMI
T1 sequence (P17787 26-502): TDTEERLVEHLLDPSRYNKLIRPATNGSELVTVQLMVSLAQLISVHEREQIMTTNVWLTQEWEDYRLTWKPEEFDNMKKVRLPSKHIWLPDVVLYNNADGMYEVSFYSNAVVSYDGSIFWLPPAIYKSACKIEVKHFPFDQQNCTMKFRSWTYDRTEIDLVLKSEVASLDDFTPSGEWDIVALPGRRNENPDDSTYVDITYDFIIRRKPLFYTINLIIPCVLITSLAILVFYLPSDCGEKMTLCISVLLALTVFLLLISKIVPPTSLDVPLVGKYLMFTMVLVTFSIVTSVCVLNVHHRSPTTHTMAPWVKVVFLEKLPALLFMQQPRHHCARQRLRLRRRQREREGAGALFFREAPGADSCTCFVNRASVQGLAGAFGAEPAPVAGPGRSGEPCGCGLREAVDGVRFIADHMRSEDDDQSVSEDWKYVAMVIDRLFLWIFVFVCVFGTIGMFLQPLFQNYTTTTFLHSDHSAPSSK

In the case of Cc1ccc(-c2ccc(O[C@H]3CN4CCC3CC4)cn2)cc1 [Compound A, (R)-3-(6-(4-methylphenyl)-pyridin-3-yloxy)-1-aza-bicyclo[2.2.2]octane], the EC50 [1] is reported as > 100 µM, the IC50 [1] is reported as 5.6 µM and the “Cmax/Dose (ng/mL)/(mg/kg), Mean All” value [2] is reported as 11.3 (ng/mL)/(mg/kg). The AUC(0-t) ([2]; AUClast (h · ng/mL), Mean All) was 200 ± 62 ng·h/mL, the Cmax ([2]; Cmax (ng/mL), Mean All) was 112 ± 40 ng/mL and the Tmax [2] was 15 min. The Tmax ([2]; all rats) was 15 to 30 min and the half-life ([2]; T½ (h), Mean All) was 310 min.
